Measured values: US20160159816A1, “SUBSTITUTED THIENOPYRIMIDINES AND PHARMACEUTICAL USE THEREOF” (BAYER PHARMA AKTIENGESELLSCHAFT, priority 2013, published 2016)

Target: T1, human full-length MKNK1 (Homo sapiens, UniProt Q9BUB5, T385D)
T1 construct: GST (N); purchased Carna Biosciences 02-145; host or cells: insect cells, baculovirus expression system
Experiment: MKNK1 kinase high ATP assay (TR-FRET)
Assay type: biochemical
Settings: high ATP (2 mM), after preincubation with MKNK1; compounds of the present invention (Table 1a)
Description: MKNK1-inhibitory activity at high ATP of compounds of the present invention after their preincubation with MKNK1 was quantified employing the TR-FRET-based MKNK1 high ATP assay as described in the following paragraphs.
A recombinant fusion protein of Glutathione-S-Transferase (GST, N-terminally) and human full-length MKNK1 (amino acids 1-424 and T344D of accession number BAA 19885.1), expressed in insect cells using baculovirus expression system and purified via glutathione sepharose affinity chromatography, was purchased from Carna Biosciences (product no 02-145) and used as enzyme. As substrate for the kinase reaction the biotinylated peptide biotin-Ahx-IKKRKLTRRKSLKG (C-terminus in amide form) was used, which can be purchased e.g. from the company Biosyntan (Berlin-Buch, Germany).
For the assay 50 nL of a 100 fold concentrated solution of the test compound in DMSO was pipetted into a black low volume 384 well microtiter plate (Greiner Bio-One, Frickenhausen, Germany), 2 μL of a solution of MKNK1 in aqueous assay buffer [50 mM HEPES pH 7.5, 5 mM MgCl2, 1.0 mM dithiothreitol, 0.005% (v/v) Nonidet-P40 (Sigma)] was added and the mixture was incubated for 15 min at 22° C. to allow pre-binding of the test compounds to the enzyme before the start of the kinase reaction. Then the kinase reaction was started by the addition of 3 μL of a solution of adenosine-tri-phosphate (ATP, 3.3 mM=>final conc. in the 5 μL assay volume is 2 mM) and substrate (0.1 μM=>final conc. in the 5 μL assay volume is 0.06 μM) in assay buffer and the resulting mixture was incubated for a reaction time of 30 min at 22° C. The concentration of MKNK1 was adjusted depending of the activity of the enzyme lot and was chosen appropriate to have the assay in the linear range, typical concentrations were in the range of 0.003 μg/mL. The reaction was stopped by the addition of 5 μL of a solution of TR-FRET detection reagents (5 nM streptavidine-XL665 [Cisbio Bioassays, Codolet, France] and 1 nM anti-ribosomal protein […] (pSer236)-antibody from Invitrogen [#44921G] and 1 nM LANCE EU-W1024 labeled ProteinG [Perkin-Elmer, product no. AD0071]) in an aqueous EDTA-solution (100 mM EDTA, 0.1% (w/v) bovine serum albumin in 50 mM HEPES pH 7.5).
The resulting mixture was incubated for 1 h at 22° C. to allow the formation of complex between the phosphorylated biotinylated peptide and the detection reagents. Subsequently the amount of phosphorylated substrate was evaluated by measurement of the resonance energy transfer from the Eu-chelate to the streptavidine-XL. Therefore, the fluorescence emissions at 620 nm and 665 nm after excitation at 350 nm were measured in a TR-FRET reader, e.g. a Rubystar (BMG Labtechnologies, Offenburg, Germany) or a Viewlux (Perkin-Elmer). The ratio of the emissions at 665 nm and at […] was taken as the measure for the amount of phosphorylated substrate. The data were normalised (enzyme reaction without inhibitor=0% inhibition, all other assay components but no enzyme=100% inhibition). […] Table 1a lists MKNK1 high ATP IC50 values of some compounds of the present invention.

T1 sequence (Q9BUB5 1-424 isoform Q9BUB5-2 T344D): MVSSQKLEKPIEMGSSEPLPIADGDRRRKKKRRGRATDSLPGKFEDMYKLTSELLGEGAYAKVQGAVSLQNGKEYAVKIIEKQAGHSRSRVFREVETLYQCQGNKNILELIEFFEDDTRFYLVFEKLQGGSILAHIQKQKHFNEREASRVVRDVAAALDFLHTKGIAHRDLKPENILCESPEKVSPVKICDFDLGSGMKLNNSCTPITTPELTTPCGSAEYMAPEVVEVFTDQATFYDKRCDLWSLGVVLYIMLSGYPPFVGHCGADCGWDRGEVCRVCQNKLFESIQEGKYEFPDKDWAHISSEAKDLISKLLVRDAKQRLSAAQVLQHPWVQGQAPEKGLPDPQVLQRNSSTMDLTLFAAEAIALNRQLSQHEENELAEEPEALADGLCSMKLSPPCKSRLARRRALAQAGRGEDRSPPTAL

SMILES | IC50 [µM]
COCC1(OC)CCc2c(sc3ncnc(Nc4cc5cn[nH]c5cc4Cl)c23)C1 (single isomer, unassigned) [Example 46, (7R) or (7S) N-(6-Chloro-1H-indazol-5-yl)-7-methoxy-7-(methoxymethyl)-5,6,7,8-tetrahydro[1]benzothieno[2,3-d]pyrimidin-4-amine] | 0.0892
CC[C@@]1(C(=O)N2CCOCC2)CCc2c(sc3ncnc(Nc4cc5cn[nH]c5cc4OC)c23)C1 [Example 62, (7R) {7-Ethyl-4-[(6-methoxy-1H-indazol-5-yl)amino]-5,6,7,8-tetrahydro[1]benzothieno[2,3-d]pyrimidin-7-yl}(morpholin-4-yl)methanone] | 0.0317
COc1cc2[nH]ncc2cc1Nc1ncnc2sc3c(c12)CCC(CNC(=O)NC(C)C)C3 (racemic) [Example 20, (RS)-1-({4-[(6-Methoxy-1H-indazol-5-yl)amino]-5,6,7,8-tetrahydro[1]benzothieno[2,3-d]pyrimidin-7-yl}methyl)-3-propan-2-ylurea] | 0.0031
COc1cc2[nH]ncc2cc1Nc1ncnc2sc3c(c12)CC[C@](C)(C(=O)N(C)C)C3 [Example 48, (7S) 4-[(6-Methoxy-1H-indazol-5-yl)amino]-N,N,7-trimethyl-5,6,7,8-tetrahydro[1]benzothieno[2,3-d]pyrimidine-7-carboxamide] | 0.0024
COc1cc2[nH]ncc2cc1Nc1ncnc2sc3c(c12)CCC1(C3)OCCO1 [Example 24, N-(6-Methoxy-1H-indazol-5-yl)-5,8-dihydro-6H-spiro[1-benzothieno[2,3-d]pyrimidine-7,2′-[1,3]dioxolan]-4-amine] | 0.0048
CC1CCc2c(sc3ncnc(Nc4cc5cn[nH]c5cc4Cl)c23)C1 (racemic) [Example 26, (RS)—N-(6-Chloro-1H-indazol-5-yl)-7-methyl-5,6,7,8-tetrahydro[1]benzothieno[2,3-d]pyrimidin-4-amine] | 0.327
COc1cc2[nH]ncc2cc1Nc1ncnc2sc3c(c12)CC[C@](C)(C(=O)N(C)OC)C3 [Example 58, (7S) N-Methoxy-4-[(6-methoxy-1H-indazol-5-yl)amino]-N,7-dimethyl-5,6,7,8-tetrahydro[1]benzothieno[2,3-d]pyrimidine-7-carboxamide] | 0.0025
CC[C@@]1(C(=O)N(C)CCOC)CCc2c(sc3ncnc(Nc4cc5cn[nH]c5cc4OC)c23)C1 [Example 64, (7R) 7-Ethyl-N-(2-methoxyethyl)-4-[(6-methoxy-1H-indazol-5-yl)amino]-N-methyl-5,6,7,8-tetrahydro[1]benzothieno[2,3-d]pyrimidine-7-carboxamide] | 0.0263
COCC1(OC)CCc2c(sc3ncnc(Nc4cc5cn[nH]c5cc4C)c23)C1 (single isomer, unassigned) [Example 40, (7R) or (7S) 7-Methoxy-7-(methoxymethyl)-N-(6-methyl-1H-indazol-5-yl)-5,6,7,8-tetrahydro[1]benzothieno[2,3-d]pyrimidin-4-amine] | 0.487
CC[C@]1(C(=O)N2CCC2)CCc2c(sc3ncnc(Nc4cc5cn[nH]c5cc4OC)c23)C1 [Example 69, (7S) Azetidin-1-yl{(7S)-7-ethyl-4-[(6-methoxy-1H-indazol-5-yl)amino]-5,6,7,8-tetrahydro[1]benzothieno[2,3-d]pyrimidin-7-yl}methanone] | 0.0034
COCCN(C)C(=O)[C@@]1(C)CCc2c(sc3ncnc(Nc4cc5cn[nH]c5cc4OC)c23)C1 [Example 56, (7S) N-(2-Methoxyethyl)-4-[(6-methoxy-1H-indazol-5-yl)amino]-N,7-dimethyl-5,6,7,8-tetrahydro[1]benzothieno[2,3-d]pyrimidine-7-carboxamide] | 0.0045
CC(C)(O)C(=O)NCC1CCc2c(sc3ncnc(Nc4ccc5[nH]ncc5c4)c23)C1 (racemic) [Example 13, (RS)-2-Hydroxy-N-{[4-(1H-indazol-5-ylamino)-5,6,7,8-tetrahydro[1]benzothieno[2,3-d]pyrimidin-7-yl]methyl}-2-methylpropanamide] | 0.0124
CC1CCc2c(sc3ncnc(Nc4cc5cn[nH]c5cc4F)c23)C1 (racemic) [Example 28, (RS)—N-(6-Fluoro-1H-indazol-5-yl)-7-methyl-5,6,7,8-tetrahydro[1]benzothieno[2,3-d]pyrimidin-4-amine] | 0.0671
COc1cc2[nH]ncc2cc1Nc1ncnc2sc3c(c12)CC[C@@](C)(C(=O)N(C)C)C3 [Example 49, (7R) 4-[(6-Methoxy-1H-indazol-5-yl)amino]-N,N,7-trimethyl-5,6,7,8-tetrahydro[1]benzothieno[2,3-d]pyrimidine-7-carboxamide] | 0.0133
NCC1CCc2c(sc3ncnc(Nc4ccc5[nH]ncc5c4)c23)C1 (racemic) [Example 7, (RS)-7-(Aminomethyl)-N-(1H-indazol-5-yl)-5,6,7,8-tetrahydro[1]benzothieno[2,3-d]pyrimidin-4-amine] | 0.155
CC(C)C(=O)NCC1CCc2c(sc3ncnc(Nc4ccc5[nH]ncc5c4)c23)C1 (racemic) [Example 10, (RS)—N-{[4-(1H-Indazol-5-ylamino)-5,6,7,8-tetrahydro[1]benzothieno[2,3-d]pyrimidin-7-yl]methyl}-2-methylpropanamide] | 0.011
c1nc(Nc2ccc3[nH]ncc3c2)c2c3c(sc2n1)CCCC3 [Example 3, N-(1H-Indazol-5-yl)-5,6,7,8-tetrahydro[1]benzothieno[2,3-d]pyrimidin-4-amine] | 0.0185
COCC1(OC)CCc2c(sc3ncnc(Nc4cc5cn[nH]c5cc4OC)c23)C1 (single isomer, unassigned) [Example 42, (7R) or (7S) 7-Methoxy-N-(6-methoxy-1H-indazol-5-yl)-7-(methoxymethyl)-5,6,7,8-tetrahydro[1]benzothieno[2,3-d]pyrimidin-4-amine] | 0.0101
COc1cc2[nH]ncc2cc1Nc1ncnc2sc3c(c12)CC[C@@](C)(C(=O)N1CCOC[C@H]1C)C3 [Example 55, (7R) {4-[(6-Methoxy-1H-indazol-5-yl)amino]-7-methyl-5,6,7,8-tetrahydro[1]benzothieno[2,3-d]pyrimidin-7-yl}[(3R)-3-methylmorpholin-4-yl]methanone] | 0.0333
CC(O)C(=O)NCC1CCc2c(sc3ncnc(Nc4ccc5[nH]ncc5c4)c23)C1 (racemic) [Example 12, (2RS)-2-Hydroxy-N-{[(7RS)-4-(1H-indazol-5-ylamino)-5,6,7,8-tetrahydro[1]benzothieno[2,3-d]pyrimidin-7-yl]methyl}propanamide] | 0.0196
CC[C@@]1(C(=O)N(C)C)CCc2c(sc3ncnc(Nc4cc5cn[nH]c5cc4OC)c23)C1 [Example 50, (7R) 7-Ethyl-4-[(6-methoxy-1H-indazol-5-yl)amino]-N,N-dimethyl-5,6,7,8-tetrahydro[1]benzothieno[2,3-d]pyrimidine-7-carboxamide] | 0.0196
COc1cc2[nH]ncc2cc1Nc1ncnc2sc3c(c12)CC[C@](C)(C(=O)N1CCOC[C@H]1C)C3 [Example 54, (7S) {4-[(6-Methoxy-1H-indazol-5-yl)amino]-7-methyl-5,6,7,8-tetrahydro[1]benzothieno[2,3-d]pyrimidin-7-yl}[(3R)-3-methylmorpholin-4-yl]methanone] | 0.0043
[N-]=[N+]=NCC1CCc2c(sc3ncnc(Nc4ccc5[nH]ncc5c4)c23)C1 (racemic) [Example 6, (RS)-7-(Azidomethyl)-N-(1H-indazol-5-yl)-5,6,7,8-tetrahydro[1]benzothieno[2,3-d]pyrimidin-4-amine] | 0.124
COCCN(C)C(=O)[C@]1(C)CCc2c(sc3ncnc(Nc4cc5cn[nH]c5cc4OC)c23)C1 [Example 57, (7R) N-(2-Methoxyethyl)-4-[(6-methoxy-1H-indazol-5-yl)amino]-N,7-dimethyl-5,6,7,8-tetrahydro[1]benzothieno[2,3-d]pyrimidine-7-carboxamide] | 0.0214
